Laboratory results: BigSolDB 2.1

CC(=O)[C@@]12O[C@@H]1C[C@H]1[C@@H]3CCC4=CC(=O)CC[C@]4(C)[C@H]3[C@H](O)C[C@@]12C
Settings | solubility (mole fraction)
in 1,4-dioxane, 298 K | 0.00293
in 1,4-dioxane, 302.75 K | 0.00353
in 1,4-dioxane, 306.39 K | 0.00408
in 1,4-dioxane, 310.55 K | 0.00447
in 1,4-dioxane, 314.75 K | 0.00518
in 1,4-dioxane, 317.25 K | 0.0055
in 1,4-dioxane, 320.35 K | 0.00605
in 1,4-dioxane, 325.05 K | 0.00687
in 1,4-dioxane, 328.55 K | 0.00765
in 1,4-dioxane, 332.05 K | 0.00845
in 1,4-dioxane, 335.35 K | 0.00932
in 1,4-dioxane, 340.15 K | 0.0105
in DMSO, 297.75 K | 0.00423
in DMSO, 301.3 K | 0.00515
in DMSO, 311.06 K | 0.00772
in DMSO, 315.15 K | 0.00843
in DMSO, 319.05 K | 0.00966
in DMSO, 324.25 K | 0.0112
in DMSO, 327.15 K | 0.0126
in DMSO, 329.55 K | 0.0141
in DMSO, 333.67 K | 0.016
in DMSO, 337.43 K | 0.0178
in DMSO, 340.25 K | 0.0196
in DMSO, 344.65 K | 0.0228
in isopropanol, 297.95 K | 0.000542
in isopropanol, 300.25 K | 0.000643
in isopropanol, 303.45 K | 0.000717
in isopropanol, 308.05 K | 0.000952
in isopropanol, 312.65 K | 0.00126
in isopropanol, 316.35 K | 0.00147
in isopropanol, 320.75 K | 0.0019
in isopropanol, 323.85 K | 0.00212
in isopropanol, 327.45 K | 0.00262
in isopropanol, 331.95 K | 0.00311
in isopropanol, 335.65 K | 0.00368
in isopropanol, 340.25 K | 0.00456
in n-butanol, 298.75 K | 0.000597
in n-butanol, 304.45 K | 0.000775
in n-butanol, 307.35 K | 0.000935
in n-butanol, 310.75 K | 0.00113
in n-butanol, 315.67 K | 0.00143
in n-butanol, 320.75 K | 0.00177
in n-butanol, 324.35 K | 0.00205
in n-butanol, 328.55 K | 0.00237
in n-butanol, 331.65 K | 0.00268
in n-butanol, 334.15 K | 0.00304
in n-butanol, 336.45 K | 0.00334
in n-butanol, 340.15 K | 0.00384
in n-propanol, 300.5 K | 0.000796
in n-propanol, 303.25 K | 0.000933
in n-propanol, 306.75 K | 0.00109
in n-propanol, 309.9 K | 0.00125
in n-propanol, 312.7 K | 0.00142
in n-propanol, 317.15 K | 0.00172
in n-propanol, 321.67 K | 0.00208
in n-propanol, 324.85 K | 0.00235
in n-propanol, 327.95 K | 0.0027
in n-propanol, 332.65 K | 0.00322
in n-propanol, 336.85 K | 0.00382
in n-propanol, 341.65 K | 0.00463

CC(=O)[C@@]12O[C@@H]1C[C@H]1[C@@H]3CCC4=CC(=O)CC[C@]4(C)[C@H]3CC[C@@]12C
Settings | solubility (mole fraction)
in DMSO, 312.45 K | 0.00539
in DMSO, 315.5 K | 0.00572
in DMSO, 318.35 K | 0.00657
in DMSO, 322.35 K | 0.00756
in DMSO, 326.5 K | 0.0087
in DMSO, 328.65 K | 0.00937
in DMSO, 331.2 K | 0.0101
in DMSO, 334.9 K | 0.0115
in DMSO, 339.15 K | 0.0135
in DMSO, 343.95 K | 0.0161
in DMSO, 348.35 K | 0.0188
in DMSO, 353.45 K | 0.0223
in isopropanol, 296.65 K | 0.00307
in isopropanol, 299.55 K | 0.00341
in isopropanol, 303.25 K | 0.00405
in isopropanol, 306.35 K | 0.00486
in isopropanol, 311.75 K | 0.00598
in isopropanol, 314.8 K | 0.00689
in isopropanol, 317.85 K | 0.00752
in isopropanol, 322.95 K | 0.00992
in isopropanol, 325.6 K | 0.011
in isopropanol, 328.75 K | 0.0125
in isopropanol, 333.25 K | 0.0152
in isopropanol, 337.45 K | 0.0177
in n-butanol, 300.85 K | 0.00412
in n-butanol, 303.9 K | 0.00473
in n-butanol, 306.75 K | 0.00543
in n-butanol, 309.85 K | 0.00624
in n-butanol, 314.25 K | 0.00765
in n-butanol, 319.18 K | 0.00919
in n-butanol, 323.55 K | 0.0109
in n-butanol, 328.05 K | 0.0134
in n-butanol, 332.75 K | 0.0162
in n-butanol, 336.66 K | 0.019
in n-butanol, 340.3 K | 0.0219
in n-butanol, 343.5 K | 0.0244
in n-propanol, 299.15 K | 0.00349
in n-propanol, 304.05 K | 0.00459
in n-propanol, 307.5 K | 0.00524
in n-propanol, 311.55 K | 0.00623
in n-propanol, 313.7 K | 0.00684
in n-propanol, 316.25 K | 0.00769
in n-propanol, 320.65 K | 0.00908
in n-propanol, 324.25 K | 0.0105
in n-propanol, 328.25 K | 0.0122
in n-propanol, 332.05 K | 0.0143
in n-propanol, 335.25 K | 0.0165
in n-propanol, 340.6 K | 0.0203
